The text below walks through data of patent US7858786B2, “Pyrimidines and pyrazines useful as modulators of ion channels” (Vertex Pharmaceuticals Incoropated, priority 2005, dated 2010).

The target in experiment [1] is T1, NaV1.8 (Homo sapiens, UniProt Q9Y5Y9). In words: Activity against NaV 1.8 channel (NaV inhibition assay). The format is cell-based. As for the experimental part: Compounds of the invention are useful as antagonists of voltage-gated sodium ion channels. Antagonist properties of test compounds were assessed as follows. Cells expressing the NaV of interest were placed into microtiter plates. After an incubation period, the cells were stained with fluorescent dyes sensitive to the transmembrane potential. The test compounds were added to the microtiter plate. The cells were stimulated with either a chemical or electrical means to evoke a NaV dependent membrane potential change from unblocked channels, which was detected and measured with trans-membrane potential-sensitive dyes. Antagonists were detected as a decreased membrane potential response to the stimulus. The optical membrane potential assay utilized voltage-sensitive FRET sensors described by Gonzalez and Tsien (See, Gonzalez, J. E. and R. Y. Tsien (1995) “Voltage sensing by fluorescence resonance energy transfer in single cells” Biophys J 69(4):1272-80, and Gonzalez, J. E. and R. Y. Tsien (1997) “Improved indicators of cell membrane potential that use fluorescence resonance energy transfer” Chem Biol 4(4):269-77) in combination with instrumentation for measuring fluorescence changes such as the Voltage/Ion Probe Reader (VIPRO®) (See, Gonzalez, J. E., K. Oades, et al. (1999) “Cell-based assays and instrumentation for screening ion-channel targets” Drug Discov Today 4(9):431-439).
24 hours before the assay on VIPR, CHO cells endogenously expressing a NaV1.2 type voltage-gated NaV are seeded in 96-well poly-lysine coated plates at 60,000 cells per well. Other subtypes are performed in an analogous mode in a cell line expressing the NaV of interest.
The following is an example of how NaV1.3 inhibition activity is measured using the optical membrane potential method #2. Other subtypes are performed in an analogous mode in a cell line expressing the NaV of interest.
HEK293 cells stably expressing NaV1.3 are plated into 96-well microtiter plates. After an appropriate incubation period, the cells are stained with the voltage sensitive dyes CC2-DMPE/DiSBAC2(3) as follows.
Patch clamp electrophysiology was used to assess the efficacy and selectivity of sodium channel blockers in dorsal root ganglion neurons. Rat neurons were isolated from the dorsal root ganglions and maintained in culture for 2 to 10 days in the presence of NGF (50 ng/ml) (culture media consisted of NeurobasalA supplemented with B27, glutamine and antibiotics). Small diameter neurons (nociceptors, 8-12 μm in diameter) have been visually identified and probed with fine tip glass electrodes connected to an amplifier (Axon Instruments). The “voltage clamp” mode has been used to assess the compound's IC50 holding the cells at −60 mV. In addition, the “current clamp” mode has been employed to test the efficacy of the compounds in blocking action potential generation in response to current injections. The results of these experiments have contributed to the definition of the efficacy profile of the compounds.
TTX-resistant sodium currents were recorded from DRG somata using the whole-cell variation of the patch clamp technique. Recordings were made at room temperature (˜22° C.) with thick walled borosilicate glass electrodes (WPI; resistance 3-4 MΩ) using an Axopatch 200B amplifier (Axon Instruments). After establishing the whole-cell configuration, approximately 15 minutes were allowed for the pipette solution to equilibrate within the cell before beginning recording. Currents were lowpass filtered between 2-5 kHz and digitally sampled at 10 kHz. Series resistance was compensated 60-70% and was monitored continuously throughout the experiment. The liquid junction potential (−7 mV) between the intracellular pipette solution and the external recording solution was not accounted for in the data analysis. Test solutions were applied to the cells with a gravity driven fast perfusion system (SF-77; Warner Instruments). […]

The subject of another experiment is neuropathic pain. As to conditions: modest efficacy; cited from earlier work.
Experiment [2] concerns the target T1, NaV1.8. As to conditions: read-out: TTX IC50; cited from earlier work.

SMILES strings stand for the structures. Like-named read-outs stand apart in the source and are kept apart here.

T1 sequence (Q9Y5Y9 whole entry, looked up): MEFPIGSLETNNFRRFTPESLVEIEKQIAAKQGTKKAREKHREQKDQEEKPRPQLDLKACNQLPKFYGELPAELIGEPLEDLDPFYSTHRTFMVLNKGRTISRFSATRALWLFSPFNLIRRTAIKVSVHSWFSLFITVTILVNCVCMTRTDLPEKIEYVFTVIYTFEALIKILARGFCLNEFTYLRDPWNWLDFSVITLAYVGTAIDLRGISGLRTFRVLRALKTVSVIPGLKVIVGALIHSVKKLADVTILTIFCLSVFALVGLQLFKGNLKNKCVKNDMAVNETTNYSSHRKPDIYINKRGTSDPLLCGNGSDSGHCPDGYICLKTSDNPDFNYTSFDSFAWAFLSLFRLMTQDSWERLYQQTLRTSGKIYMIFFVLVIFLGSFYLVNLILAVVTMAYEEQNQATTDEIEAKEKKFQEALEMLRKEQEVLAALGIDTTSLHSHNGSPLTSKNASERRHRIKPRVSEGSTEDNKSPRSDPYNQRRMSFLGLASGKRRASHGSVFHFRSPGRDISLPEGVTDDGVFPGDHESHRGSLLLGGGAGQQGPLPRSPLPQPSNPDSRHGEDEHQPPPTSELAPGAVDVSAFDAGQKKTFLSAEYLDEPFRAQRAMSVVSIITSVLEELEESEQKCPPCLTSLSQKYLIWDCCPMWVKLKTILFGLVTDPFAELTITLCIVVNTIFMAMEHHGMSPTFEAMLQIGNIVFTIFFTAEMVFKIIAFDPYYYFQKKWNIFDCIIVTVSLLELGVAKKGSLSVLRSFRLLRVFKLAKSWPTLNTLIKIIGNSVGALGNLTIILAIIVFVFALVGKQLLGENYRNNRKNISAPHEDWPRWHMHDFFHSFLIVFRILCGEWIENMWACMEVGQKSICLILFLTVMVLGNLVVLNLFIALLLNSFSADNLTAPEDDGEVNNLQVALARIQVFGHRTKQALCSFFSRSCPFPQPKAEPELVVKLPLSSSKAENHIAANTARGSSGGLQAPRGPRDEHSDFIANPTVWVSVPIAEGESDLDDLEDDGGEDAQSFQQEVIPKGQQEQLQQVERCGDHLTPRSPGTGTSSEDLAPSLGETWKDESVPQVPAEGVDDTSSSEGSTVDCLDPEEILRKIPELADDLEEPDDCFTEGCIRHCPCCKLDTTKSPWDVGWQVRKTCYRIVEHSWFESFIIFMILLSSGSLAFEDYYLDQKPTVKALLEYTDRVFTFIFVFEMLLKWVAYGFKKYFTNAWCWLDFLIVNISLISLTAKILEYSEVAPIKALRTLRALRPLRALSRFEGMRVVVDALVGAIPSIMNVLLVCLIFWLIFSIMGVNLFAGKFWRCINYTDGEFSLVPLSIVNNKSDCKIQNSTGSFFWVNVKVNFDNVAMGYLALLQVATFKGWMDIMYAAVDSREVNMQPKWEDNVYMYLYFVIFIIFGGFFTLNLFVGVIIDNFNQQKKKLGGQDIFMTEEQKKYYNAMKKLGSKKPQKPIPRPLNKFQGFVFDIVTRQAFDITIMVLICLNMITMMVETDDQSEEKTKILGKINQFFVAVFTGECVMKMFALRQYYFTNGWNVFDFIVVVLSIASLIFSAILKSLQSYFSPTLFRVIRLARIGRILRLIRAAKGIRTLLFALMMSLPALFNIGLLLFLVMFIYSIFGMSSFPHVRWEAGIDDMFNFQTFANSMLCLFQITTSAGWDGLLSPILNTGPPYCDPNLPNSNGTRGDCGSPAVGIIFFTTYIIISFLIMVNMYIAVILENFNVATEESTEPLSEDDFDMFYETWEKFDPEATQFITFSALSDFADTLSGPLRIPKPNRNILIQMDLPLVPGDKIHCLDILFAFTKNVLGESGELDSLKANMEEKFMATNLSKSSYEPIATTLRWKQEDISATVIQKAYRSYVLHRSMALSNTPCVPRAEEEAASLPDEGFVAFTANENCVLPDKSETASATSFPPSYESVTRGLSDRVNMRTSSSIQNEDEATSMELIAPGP

The IC50 is the midpoint of a concentration-inhibition curve. Regarding `CC(C)COC(=O)N1CCN(c2ccnc(-c3ccccc3O)n2)CC1` [Compound 34, 4-[2-(2-hydroxyphenyl)pyrimidin-4-yl]piperazine-1-carboxylic acid isobutyl ester], the IC50 on NaV1.8 [1] was greater than 15 µM.
For the molecule `CC(C)COC(=O)NC1CCN(c2ccnc(-c3ccccc3O)n2)CC1` [Compound 35, [1-[2-(2-hydroxyphenyl)pyrimidin-4-yl]-4-piperidyl]aminoformic acid isobutyl ester], the IC50 at NaV1.8 [1] was 10 to 15 µM.
Still for that read-out and setting: as for `CC(C)COC(=O)N[C@H]1CCN(c2cncc(-c3ccccc3C(F)F)n2)C1` [Compound 36, [1-[6-[2-(difluoromethyl)phenyl]pyrazin-2-yl]pyrrolidin-3-yl]aminoformic acid isobutyl ester], the figure is less than 10 µM.
The same measure, in the same setting: as for `CC(C)C[C@@H](O)C(=O)N1CCN(c2cncc(-c3ccccc3O)n2)CC1` [Compound 38, 2-hydroxy-1-[4-[6-(2-hydroxyphenyl)pyrazin-2-yl]piperazin-1-yl]-4-methyl-pentan-1-one], the figure is greater than 15 µM; as for `CC(C)C[C@@H](O)C(=O)N1CCN(c2nccc(-c3ccccc3O)n2)CC1` [Compound 39, 2-hydroxy-1-[4-[4-(2-hydroxyphenyl)pyrimidin-2-yl]piperazin-1-yl]-4-methyl-pentan-1-one], less than 10 µM.
On to `CC(C)(C)OC(=O)N[C@@H]1CCN(c2cncc(-c3ccccc3O)n2)C1` [Compound 40, [1-[6-(2-hydroxyphenyl)pyrazin-2-yl]pyrrolidin-3-yl]aminoformic acid tert-butyl ester], for which the IC50 on NaV1.8 [1] was greater than 15 µM.
Same read-out and setting: then `CC(C)OC(=O)N[C@@H]1CCN(c2cncc(-c3ccccc3O)n2)C1` [Compound 41, [1-[6-(2-hydroxyphenyl)pyrazin-2-yl]pyrrolidin-3-yl]aminoformic acid isopropyl ester], with greater than 15 µM; and `CC(C)C[C@@H](O)C(=O)N1CCN(c2ccnc(-c3ccccc3F)n2)CC1` [Compound 42, 1-[4-[2-(2-fluorophenyl)pyrimidin-4-yl]piperazin-1-yl]-2-hydroxy-4-methyl-pentan-1-one], with greater than 15 µM.
Still for that read-out and setting: then `CC(C)(C)OC(=O)N[C@@H]1CCN(c2cncc(-c3ccccc3C(F)F)n2)C1` [Compound 43, [1-[6-[2-(difluoromethyl)phenyl]pyrazin-2-yl]pyrrolidin-3-yl]aminoformic acid tert-butyl ester], with 10 to 15 µM; and `CC(C)C[C@@H](O)C(=O)N1CCN(c2cc(-c3ccccc3F)ncn2)CC1` [Compound 44, 1-[4-[6-(2-fluorophenyl)pyrimidin-4-yl]piperazin-1-yl]-2-hydroxy-4-methyl-pentan-1-one], with greater than 15 µM; and `CC(C)COC(=O)NC1CCN(c2cncc(-c3ccccc3F)n2)CC1` [Compound 45, [1-[6-(2-fluorophenyl)pyrazin-2-yl]-4-piperidyl]aminoformic acid isobutyl ester], with less than 10 µM.
As for `CC(C)COC(=O)N1CCN(c2cncc(-c3ccccc3F)n2)CC1` [Compound 46, 4-[6-(2-fluorophenyl)pyrazin-2-yl]piperazine-1-carboxylic acid isobutyl ester], the IC50 on NaV1.8 [1] was greater than 15 µM.
Still for that read-out and setting: as for `COCCOC(=O)NC1CCN(c2cncc(-c3ccccc3O)n2)CC1` [Compound 47, [1-[6-(2-hydroxyphenyl)pyrazin-2-yl]-4-piperidyl]aminoformic acid 2-methoxyethyl ester], the figure is greater than 15 µM; as for `CC(C)COC(=O)NC1CCN(c2cncc(-c3ccccc3C(F)F)n2)CC1` [Compound 48, [1-[6-[2-(difluoromethyl)phenyl]pyrazin-2-yl]-4-piperidyl]aminoformic acid isobutyl ester], less than 10 µM.
With `CC(C)C[C@@H](O)C(=O)N1CCN(c2cc(-c3ccccc3C(F)F)ncn2)CC1` [Compound 49, 1-[4-[6-[2-(difluoromethyl)phenyl]pyrimidin-4-yl]piperazin-1-yl]-2-hydroxy-4-methyl-pentan-1-one], the IC50 on NaV1.8 [1] was greater than 15 µM.
On the same count and under the same terms, then `CC(C)(C)OC(=O)NC1CCN(c2cncc(-c3ccccc3O)n2)CC1` [Compound 52, [1-[6-(2-hydroxyphenyl)pyrazin-2-yl]-4-piperidyl]aminoformic acid tert-butyl ester], with less than 10 µM.
For the molecule `NCC1(CC(=O)O)CCCCC1` [Gabapentin], in the experiment with neuropathic pain, the “patients in which it works” value is on record as 60%.
`NC1=N[C@H](O)[C@H]2[C@H]3O[C@]4(O)O[C@@H]([C@@H](O)[C@@]2(N1)[C@@H]4O)[C@]3(O)CO` [TTX, tetrodotoxin]: the IC50 on NaV1.8 [2] is greater than 50 µM.
